This is an account of results in article PMC12345137 (mBio, 2025).

Like-named read-outs stand apart in the source and are kept apart here.

One test has as its target S. lugdunensis agr-I (Staphylococcus lugdunensis, UniProt Q8VSW5). In words: cell-based. As to conditions: fluorescent reporter strain; peptides tested at 1000, 50, 2.5, 0.125 nM or in dose-response. How it is done:
(§1) Peptides were evaluated for the ability to interfere with agr-mediated quorum sensing in S. aureus (AH1677, AH430, AH1747, and AH1872 for agr-I–IV, respectively) ([40]) using reporter strains expressing yellow fluorescent protein (YFP) upon agr activation. Interference with agr-mediated quorum sensing in S. epidermidis (AH3408, AH3623, and AH3409 for agr-I–III, respectively) ([45]), and S. lugdunensis (AH4031 for agr-I) ([37]) was evaluated using reporter strains expressing superfolder green fluorescent protein (sGFP) upon agr activation. Overnight cultures of the reporter strains were grown in TSB medium containing chloramphenicol (CAM, 10 μg/mL for S. aureus) or erythromycin (ERM, 10 μg/mL of S. epidermidis and S. lugdunensis) and diluted 1:100 in fresh TSB medium containing the same antibiotic. Assays were performed in sterile black 96-well plates with a clear bottom. […] DMSO stock solutions of peptides (1 mM) were diluted in TSB media and added (15 μL) in technical triplicate to the 96-well plate, followed by diluted bacterial overnight cultures (135 μL). Control wells for 100% agr activity were wells replacing the peptide solution with TSB medium (15 μL). […] Wells containing 150 μL TSB medium were used to measure background fluorescence. The 96-well plates were incubated in a humidified incubator at 37°C shaking at 1,000 rpm for 22–24 h and fluorescence (for GFP: excitation 479 nm, emission 520 nm; for YFP: excitation 500 nm, emission 541 nm; automatic gain), and OD600 values were subsequently measured using a plate reader. Background fluorescence was subtracted from all wells and further normalized to the corresponding OD600 value of the respective wells. The average fluorescence of control wells was used as a relative measure for 100% activation of the agr-circuit, and bar graphs were generated using GraphPad Prism 10.4 software. All assays were performed in at least a biological duplicate.
(§2) Overnight cultures of the reporter strains were grown in TSB medium containing chloramphenicol (CAM, 10 μg/mL for S. aureus) or erythromycin (ERM, 10 μg/mL of S. epidermidis and S. lugdunensis) and diluted 1:100 in fresh TSB medium containing the same antibiotic. Assays were performed in sterile black 96-well plates with clear bottoms. Peptide solutions (15 μL) in 1:5 serial dilutions from DMSO stock solutions (1 mM) in TSB medium were added to the 96-well plate in technical duplicate followed by diluted bacterial overnight cultures (135 μL). Control wells for 100% agr activity were wells replacing the peptide solution with TSB medium (15 μL). Wells containing 150 μL TSB medium were used to measure background fluorescence. The 96-well plates were incubated in a humidified incubator at 37°C shaking at 1,000 rpm for 22–24 h and fluorescence (for GFP: excitation 479 nm, emission 520 nm; for YFP: excitation 500 nm, emission 541 nm; automatic gain), and OD600 values were subsequently measured using a plate reader. Background fluorescence was subtracted from all wells and further normalized to the corresponding OD600 value of the respective wells. The average fluorescence of control wells was used as a relative measure for 100% activation of the agr-circuit. Relative agr activity was plotted to obtain IC50 values by non-linear regression with variable slope using GraphPad Prism 10.4 software. All assays were performed in biological triplicate.

For another test, the target named is SA AgrC-II (Staphylococcus aureus, UniProt O33587). The note with it: 100 nM cognate AIP, ± SEM, -b = no inhibition recorded at the highest AIP concentration tested, determined previously, ref (1), cited from earlier work; for IC50: read-out: IC50, SA AgrC-II, b-lactamase assay.
The next test deals with SA AgrC-III (Staphylococcus aureus, UniProt O33590). As to conditions: 100 nM cognate AIP, ± SEM, determined previously, ref (1), cited from earlier work.
Test [1] has as its system S. epidermidis (SE) agr-I. The note with it: fluorescence, cited from earlier work.
For another test, the system named is S. aureus (SA) agr-I. The note with it: fluorescence, cited from earlier work.
The test system of another test is S. aureus (SA) agr-III. As to conditions: fluorescence, cited from earlier work.
The next test relates to S. aureus (SA) agr-II. The note with it: fluorescence, cited from earlier work.
Test [2] relates to S. epidermidis (SE) agr-II. As to conditions: fluorescence, cited from earlier work.
The subject of test [3] is S. epidermidis (SE) agr-III. As to conditions: fluorescence; ref (13); cited from earlier work.
For a further test, the system named is S. aureus (SA) agr-IV. The note with it: fluorescence, cited from earlier work.
The next test addresses SA AgrC-IV (Staphylococcus aureus, UniProt Q309Z2). As to conditions: ± SEM, determined previously, ref (1), cited from earlier work; for EC50: read-out: EC50, SA AgrC-IV, b-lactamase assay.
Another test addresses S. aureus agr-IV (Staphylococcus aureus, UniProt Q309Z2). In words: cell-based. Type of test: cell-based. The note with it: fluorescent reporter strain; peptides tested at 1000, 50, 2.5, 0.125 nM or in dose-response. As for the experimental part:
as §1, §2

For another test, the target named is S. epidermidis agr-III (Staphylococcus epidermidis, UniProt Q8VSX2). Nature of the test: cell-based. Type of test: cell-based. The note with it: fluorescent reporter strain; peptides tested at 1000, 50, 2.5, 0.125 nM or in dose-response. As for the experimental part: as §1, §2
Where [4] appears, read: -b = no inhibition recorded at the highest AIP concentration tested, read-out: IC50, SA AgrC-III, b-lactamase assay.
Where [5] appears, read: only partial inhibition observed, read-out: IC50, SA AgrC-III, b-lactamase assay, only partial inhibition observed (footnote a).
The mark [6] stands for this setting: 100 nM cognate AIP, -b = no inhibition recorded at the highest AIP concentration tested.
The mark [7] stands for this setting: -b = no inhibition recorded at the highest AIP concentration tested.

Regarding “S. Simulans AIP-II/III N-Me2 [compound 56]”, the “QS interaction in words (inhibition / activation), S. lugdunensis agr-I” value at S. lugdunensis agr-I was “remained highly potent”.

With S. haemolyticus AIP-I [compound 15], the “IC50, SA AgrC-II, b-lactamase assay” value at SA AgrC-II was “-b”. For the same substance, the IC50 on SA AgrC-III (setting [4]) was 340 ± 91 nM.

In the case of S. hominis AIP-II [compound 11], the IC50 in [1] (ref (13)) was 20 nM; in the test with S. aureus (SA) agr-I (ref (13)), 15 nM; in the test on S. aureus (SA) agr-III (ref (13)), 3 nM; with S. aureus (SA) agr-II (ref (13)), 2110 nM; in [2] (ref (13)), 19 nM; in test [3] it was 62 nM. In the test with S. aureus (SA) agr-IV (ref (13)), the IC50 was 1130 nM.

Take S. hominis AIP-III [compound 12]: the IC50 in test [1] (ref (13)) is 4 nM; at SA AgrC-II, 580 ± 61 nM; with S. aureus (SA) agr-I (ref (13)), 11 nM; in the test with S. aureus (SA) agr-III (ref (13)), 6 nM; in the test on S. aureus (SA) agr-II (ref (13)), 4 nM; in test [2] (ref (13)) it was 3 nM. For the same substance, the IC50 was 220 ± 46 nM on SA AgrC-III (setting [5]) and 3 nM in [3]. Also, the EC50 at SA AgrC-IV was 54 ± 5 nM. On S. aureus agr-IV, the “QS interaction in words (inhibition / activation), S. aureus agr-IV” value is given as “activated”.

On to S. hominis AIP-IV [compound 13], for which the IC50 in test [1] (ref (13)) is 237 nM; in the test on S. aureus (SA) agr-I (ref (13)), 128 nM; in the test with S. aureus (SA) agr-III (ref (13)), 37 nM; in the test with S. aureus (SA) agr-II (ref (13)) it was 140 nM; in test [2] (ref (13)), 93 nM; in [3] it was 28 nM.

On to S. hominis AIP-V [compound 14], for which the IC50 in [1] (ref (13)) is 10 nM; with S. aureus (SA) agr-I (ref (13)) it was 43 nM; in the test with S. aureus (SA) agr-III (ref (13)), 4 nM; in the test with S. aureus (SA) agr-II (ref (13)) it was 59 nM; in [2] (ref (13)), 22 nM; in [3], 2 nM. For the same substance, in the test with S. aureus (SA) agr-IV (ref (13)), the IC50 was 3810 nM.

On to S. lugdunensis AIP-II [compound 9], for which the “IC50, SA AgrC-IV, b-lactamase assay” value on SA AgrC-IV (setting [6]) is on record as “-b”. In addition, the “IC50, SA AgrC-II, b-lactamase assay” value at SA AgrC-II is “-b”. Moreover, at SA AgrC-III (setting [7]), the “IC50, SA AgrC-III, b-lactamase assay” value is recorded as “-b”.

Take S. saprophyticus AIP-I [compound 19]: the “IC50, SA AgrC-IV, b-lactamase assay” value on SA AgrC-IV (setting [6]) is given as “-b”. Besides, the “IC50, SA AgrC-III, b-lactamase assay” value at SA AgrC-III (setting [7]) is “-b”.

On to S. schleiferi AIP-I [compound 30], for which, at SA AgrC-IV, the EC50 was 31 ± 6 nM. Further, the values for the IC50 on SA AgrC-II and on SA AgrC-III (setting [5]) were 86 ± 6 nM and 80 ± 16 nM, respectively.

In the case of “S. simulans AIP-II/III Y3A/N3A [compound 38]”, the “QS interaction in words (inhibition / activation), S. epidermidis agr-III” value at S. epidermidis agr-III is listed as “inhibitor”.

In the case of S. simulans AIP-III 8-mer [compound 52], on S. aureus agr-IV, the “QS interaction in words (inhibition / activation), S. aureus agr-IV” value was “increased inhibition”.

In the case of S. simulans AIP-III G7A [compound 49], the “QS interaction in words (inhibition / activation), S. epidermidis agr-III” value on S. epidermidis agr-III is given as “loss of activation”.

In the case of S. simulans AIP-III K1A [compound 45], the “QS interaction in words (inhibition / activation), S. epidermidis agr-III” value at S. epidermidis agr-III was “lost the ability to activate”.

Take S. simulans AIP-III P4A [compound 47]: the “QS interaction in words (inhibition / activation), S. lugdunensis agr-I” value on S. lugdunensis agr-I is on record as “increase in inhibition”.

Turning to S. simulans AIP-III W6A [compound 48], the “QS interaction in words (inhibition / activation), S. epidermidis agr-III” value at S. epidermidis agr-III is on record as “no effect on S. epidermidis agr-III activation”.

In the case of S. simulans AIP-III Y2A [compound 46], the “QS interaction in words (inhibition / activation), S. epidermidis agr-III” value on S. epidermidis agr-III is recorded as “lost the ability to activate”.

Take S. vitulinus AIP-I [compound 35]: the “IC50, SA AgrC-IV, b-lactamase assay” value on SA AgrC-IV (setting [6]) is “-b”. In addition, the IC50 is 800 ± 116 nM on SA AgrC-II and 690 ± 46 nM on SA AgrC-III (setting [4]).

With S. warneri AIP-I [compound 16], the IC50 in test [1] (ref (14)) is 3 nM; on SA AgrC-IV (100 nM cognate AIP, -b = no inhibition recorded at the highest AIP concentration tested, read-out: IC50, SA AgrC-IV, b-lactamase assay), above 1000 nM; on SA AgrC-II it was 1000 ± 105 nM; in the test with S. aureus (SA) agr-I (ref (14)) it was 10 nM; with S. aureus (SA) agr-III (ref (14)), 13 nM; in the test on S. aureus (SA) agr-II (ref (14)), 4 nM. For the same substance, the IC50 in test [2] (ref (14)) is 19 nM; at SA AgrC-III (setting [4]), 460 ± 59 nM; in the test with S. aureus (SA) agr-IV (ref (14)), 146 nM.

In the case of S. warneri AIP-II [compound 17], the IC50 is 12 nM in test [1] (ref (14)); 2 nM in the test on S. aureus (SA) agr-I (ref (14)); 2 nM in the test with S. aureus (SA) agr-III (ref (14)); 30 nM with S. aureus (SA) agr-II (ref (14)); 4 nM in [2] (ref (14)); 2 nM in the test with S. aureus (SA) agr-IV (ref (14)).
